From US9828379B2 (priority 2013, dated 2017)

Legend:
[1] = target: T1, MAGL (Mus musculus, UniProt O35678); assay: biochemical; conditions: mouse; in vitro competitive ABPP; read-out: Mouse (IC50 value, nM) MAGL
T1 sequence (O35678 1-303): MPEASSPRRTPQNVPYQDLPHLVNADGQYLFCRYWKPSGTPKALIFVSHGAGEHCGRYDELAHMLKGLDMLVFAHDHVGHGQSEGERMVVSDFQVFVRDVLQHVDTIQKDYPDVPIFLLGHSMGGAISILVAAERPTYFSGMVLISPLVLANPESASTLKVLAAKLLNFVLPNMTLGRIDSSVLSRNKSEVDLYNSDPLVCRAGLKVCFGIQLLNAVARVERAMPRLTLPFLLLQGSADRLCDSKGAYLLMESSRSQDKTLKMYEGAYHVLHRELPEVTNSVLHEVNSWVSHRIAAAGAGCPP

[2] = target: T2, FAAH (Mus musculus, UniProt O08914); assay: biochemical; conditions: in vitro competitive ABPP
T2 sequence (O08914 1-579): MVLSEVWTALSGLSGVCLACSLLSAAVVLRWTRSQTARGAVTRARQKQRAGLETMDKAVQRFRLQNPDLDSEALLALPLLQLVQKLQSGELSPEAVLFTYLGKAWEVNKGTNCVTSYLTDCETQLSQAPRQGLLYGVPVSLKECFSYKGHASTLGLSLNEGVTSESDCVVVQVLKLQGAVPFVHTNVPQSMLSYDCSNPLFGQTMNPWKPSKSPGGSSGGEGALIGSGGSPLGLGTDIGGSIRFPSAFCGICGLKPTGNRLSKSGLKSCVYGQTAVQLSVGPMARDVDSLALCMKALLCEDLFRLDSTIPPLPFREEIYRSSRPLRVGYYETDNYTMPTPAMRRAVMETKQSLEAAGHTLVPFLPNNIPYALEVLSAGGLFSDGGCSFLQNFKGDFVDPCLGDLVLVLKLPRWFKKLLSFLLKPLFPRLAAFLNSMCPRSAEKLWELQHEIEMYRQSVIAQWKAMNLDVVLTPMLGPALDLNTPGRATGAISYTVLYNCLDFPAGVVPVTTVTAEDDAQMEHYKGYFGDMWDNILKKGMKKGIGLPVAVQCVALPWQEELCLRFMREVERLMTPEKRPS

[3] = target: T2, FAAH; assay: In vitro competitive activity-based protein profiling (Table 2, % inhibition at 1 μM); format: biochemical; conditions: read-out: % Inhibition at 1 μM FAAH
[4] = target: T3, ABHD6 (Mus musculus, UniProt Q8R2Y0); assay: as above; format: biochemical; conditions: read-out: % Inhibition at 1 μM ABHD6
T3 sequence (Q8R2Y0 1-336): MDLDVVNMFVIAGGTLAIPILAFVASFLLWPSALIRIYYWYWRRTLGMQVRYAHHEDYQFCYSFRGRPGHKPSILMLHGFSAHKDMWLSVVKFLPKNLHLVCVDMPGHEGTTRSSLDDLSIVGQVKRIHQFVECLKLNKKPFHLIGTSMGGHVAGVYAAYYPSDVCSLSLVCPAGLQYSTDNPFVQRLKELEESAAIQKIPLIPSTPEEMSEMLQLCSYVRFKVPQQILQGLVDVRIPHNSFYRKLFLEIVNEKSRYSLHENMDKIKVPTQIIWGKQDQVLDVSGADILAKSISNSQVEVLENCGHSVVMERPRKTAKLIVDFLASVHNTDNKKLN

[5] = target: T1, MAGL; assay: as above; format: biochemical; conditions: read-out: % Inhibition at 1 μM MAGL
Experimental: After 30 min, FP—Rh (1.0 μL, 50 μM in DMSO) was added and the mixture was incubated for another 30 min at 37° C. Reactions were quenched with SDS loading buffer (50 μL-4×) and run on SDS-PAGE.
Cell lysates were diluted with mock proteomes for use in competitive ABPP experiments.

[6] = target: T3, ABHD6; assay: biochemical; conditions: in vitro competitive ABPP

Structure (SMILES): CCn1cc(CN2CC3CN(C(=O)OC(C(F)(F)F)C(F)(F)F)CC3C2)c(-c2ccncc2)n1 (stereo not drawn) [Example 72, 1,1,1,3,3,3-Hexafluoropropan-2-yl 5-[[1-ethyl-3-(pyridin-4-yl)-1H-pyrazol-4-yl]methyl]-octahydropyrrolo[3,4-c]pyrrole-2-carboxylate]
- IC50 [1]: < 100 nM
- IC50 [2]: 1000 to 10000 nM
- inhibition at 1 µM [3]: < 25%
- inhibition at 1 µM [4]: 25 to 75%
- inhibition at 1 µM [5]: > 75%
- IC50 [6]: 1000 to 10000 nM

Structure (SMILES): O=C(OC(C(F)(F)F)C(F)(F)F)N1CC2CN(Cc3ccc(Cl)cc3N3Cc4cccnc4C3)CC2C1 (stereo not drawn) [Example 32, 1,1,1,3,3,3-Hexafluoropropan-2-yl 5-[(4-chloro-2-[5H,6H,7H-pyrrolo[3,4-b]pyridin-6-yl]phenyl)methyl]-octahydropyrrolo[3,4-c]pyrrole-2-carboxylate]
- IC50 [1]: < 100 nM
- IC50 [2]: 1000 to 10000 nM
- inhibition at 1 µM [3]: 25 to 75%
- inhibition at 1 µM [4]: 25 to 75%
- inhibition at 1 µM [5]: > 75%
- IC50 [6]: 1000 to 10000 nM

Structure (SMILES): CC1COCCN1c1ccc(CN2CC3CN(C(=O)ON4C(=O)CCC4=O)CC3C2)c(Cl)c1 (stereo not drawn) [Example 102, 2,5-Dioxopyrrolidin-1-yl 5-[[2-chloro-4-(3-methylmorpholin-4-yl)phenyl]methyl]-octahydropyrrolo[3,4-c]pyrrole-2-carboxylate]
- IC50 [1]: 100 to 1000 nM
- IC50 [2]: 1000 to 10000 nM
- inhibition at 1 µM [3]: 25 to 75%
- inhibition at 1 µM [4]: < 25%
- inhibition at 1 µM [5]: 25 to 75%
- IC50 [6]: 1000 to 10000 nM

Structure (SMILES): CC(=O)N1CCN(c2ccc(CN3CC4CN(C(=O)OC(C(F)(F)F)C(F)(F)F)CC4C3)c(Cl)c2)CC1 (stereo not drawn) [Example 28, 1,1,1,3,3,3-Hexafluoropropan-2-yl 5-[[4-(4-acetylpiperazin-1-yl)-2-chlorophenyl]methyl]-octahydropyrrolo[3,4-c]pyrrole-2-carboxylate]
- IC50 [1]: < 100 nM
- IC50 [2]: 100 to 1000 nM
- inhibition at 1 µM [3]: 25 to 75%
- inhibition at 1 µM [4]: < 25%
- inhibition at 1 µM [5]: > 75%
- IC50 [6]: 1000 to 10000 nM

Structure (SMILES): CC(=O)N1CCC(n2nc(C)cc2CN2CC3CN(C(=O)OC(C(F)(F)F)C(F)(F)F)CC3C2)CC1 (stereo not drawn) [Example 60, 1,1,1,3,3,3-Hexafluoropropan-2-yl 5-[[1-(1-acetylpiperidin-4-yl)-3-methyl-1H-pyrazol-5-yl]methyl]-octahydropyrrolo[3,4-c]pyrrole-2-carboxylate]
- IC50 [1]: 100 to 1000 nM
- IC50 [2]: > 10000 nM
- inhibition at 1 µM [3]: < 25%
- inhibition at 1 µM [4]: < 25%
- inhibition at 1 µM [5]: > 75%
- IC50 [6]: 1000 to 10000 nM

Structure (SMILES): O=C(OC(C(F)(F)F)C(F)(F)F)N1CC2CN(Cc3cc(CN4CCCC4)cc(OC(F)(F)F)c3)CC2C1 (stereo not drawn) [Example 185, 1,1,1,3,3,3-hexafluoropropan-2-yl 5-(3-(pyrrolidin-1-ylmethyl)-5-(trifluoromethoxy)benzyl)hexahydropyrrolo[3,4-c]pyrrole-2(1H)-carboxylate]
- IC50 [1]: 100 to 1000 nM
- IC50 [2]: > 10000 nM
- inhibition at 1 µM [3]: < 25%
- inhibition at 1 µM [4]: < 25%
- inhibition at 1 µM [5]: > 75%
- IC50 [6]: 1000 to 10000 nM

Structure (SMILES): O=C(ON1C(=O)CCC1=O)N1CC2CN(Cc3ccc(N4CCOCC4)cc3Cl)CC2C1 (stereo not drawn) [Example 80, 2,5-Dioxopyrrolidin-1-yl 5-(2-chloro-4-morpholinobenzyl)hexahydropyrrolo[3,4-c]pyrrole-2(1H)-carboxylate]
- IC50 [1]: 100 to 1000 nM
- IC50 [2]: 1000 to 10000 nM
- inhibition at 1 µM [3]: 25 to 75%
- inhibition at 1 µM [4]: < 25%
- inhibition at 1 µM [5]: 25 to 75%
- IC50 [6]: 1000 to 10000 nM

Structure (SMILES): O=C(OC(C(F)(F)F)C(F)(F)F)N1CC2CN(Cc3c(N4CC5COCC5C4)cccc3C(F)(F)F)CC2C1 (stereo not drawn) [Example 209, 1,1,1,3,3,3-hexafluoropropan-2-yl 5-(2-(tetrahydro-1H-furo[3,4-c]pyrrol-5(3H)-yl)-6-(trifluoromethyl)benzyl)hexahydropyrrolo[3,4-c]pyrrole-2(1H)-carboxylate]
- IC50 [1]: 100 to 1000 nM
- IC50 [2]: > 10000 nM
- inhibition at 1 µM [3]: < 25%
- inhibition at 1 µM [4]: 25 to 75%
- inhibition at 1 µM [5]: > 75%
- IC50 [6]: 1000 to 10000 nM

Structure (SMILES): O=C(OC(C(F)(F)F)C(F)(F)F)N1CC2CN(Cc3cccc(Cl)c3N3CCOCC3)CC2C1 (stereo not drawn) [Example 44, 1,1,1,3,3,3-Hexafluoropropan-2-yl 5-[[3-chloro-2-(morpholin-4-yl)phenyl]methyl]-octahydropyrrolo[3,4-c]pyrrole-2-carboxylate]
- IC50 [1]: < 100 nM
- IC50 [2]: 1000 to 10000 nM
- inhibition at 1 µM [3]: < 25%
- inhibition at 1 µM [4]: < 25%
- inhibition at 1 µM [5]: > 75%
- IC50 [6]: 1000 to 10000 nM

Structure (SMILES): CCn1ncc(CN2CC3CN(C(=O)OC(C(F)(F)F)C(F)(F)F)CC3C2)c1C(=O)NCC1CC1 (stereo not drawn) [Example 179, 1,1,1,3,3,3-hexafluoropropan-2-yl 5-((5-((cyclopropylmethyl)carbamoyl)-1-ethyl-1H-pyrazol-4-yl)methyl)hexahydropyrrolo[3,4-c]pyrrole-2(1H)-carboxylate]
- IC50 [1]: < 100 nM
- IC50 [2]: > 10000 nM
- inhibition at 1 µM [3]: < 25%
- inhibition at 1 µM [4]: 25 to 75%
- inhibition at 1 µM [5]: > 75%
- IC50 [6]: 100 to 1000 nM

Structure (SMILES): CC1COCCN1c1cc(Cl)ccc1CN1CC2CN(C(=O)OC(C(F)(F)F)C(F)(F)F)CC2C1 (stereo not drawn) [Example 20, 1,1,1,3,3,3-Hexafluoropropan-2-yl 5-[[4-chloro-2-(3-methylmorpholin-4-yl)phenyl]methyl]-octahydropyrrolo[3,4-c]pyrrole-2-carboxylate]
- IC50 [1]: < 100 nM
- IC50 [2]: 1000 to 10000 nM
- inhibition at 1 µM [3]: < 25%
- inhibition at 1 µM [4]: < 25%
- inhibition at 1 µM [5]: > 75%
- IC50 [6]: 1000 to 10000 nM

Structure (SMILES): CC(=O)N1CCC(c2nn(C(C)C)cc2CN2CC3CN(C(=O)OC(C(F)(F)F)C(F)(F)F)CC3C2)CC1 (stereo not drawn) [Example 55, 1,1,1,3,3,3-Hexafluoropropan-2-yl 5-[[3-(1-acetylpiperidin-4-yl)-1-(propan-2-yl)-1H-pyrazol-4-yl]methyl]-octahydropyrrolo[3,4-c]pyrrole-2-carboxylate]
- IC50 [1]: 100 to 1000 nM
- IC50 [2]: > 10000 nM
- inhibition at 1 µM [3]: < 25%
- inhibition at 1 µM [4]: < 25%
- inhibition at 1 µM [5]: > 75%
- IC50 [6]: 1000 to 10000 nM

Structure (SMILES): Cc1c(CN2CC3CN(C(=O)OC(C(F)(F)F)C(F)(F)F)CC3C2)cccc1C(=O)N1CCCC1 (stereo not drawn) [Example 186, 1,1,1,3,3,3-hexafluoropropan-2-yl 5-(2-methyl-3-(pyrrolidine-1-carbonyl)benzyl)hexahydropyrrolo[3,4-c]pyrrole-2(1H)-carboxylate]
- IC50 [1]: < 100 nM
- IC50 [2]: 1000 to 10000 nM
- inhibition at 1 µM [3]: < 25%
- inhibition at 1 µM [4]: 25 to 75%
- inhibition at 1 µM [5]: > 75%
- IC50 [6]: 1000 to 10000 nM

Structure (SMILES): Cc1cccc(CN2CC3CN(C(=O)OC(C(F)(F)F)C(F)(F)F)CC3C2)c1N1CCCCC1 (stereo not drawn) [Example 30, 1,1,1,3,3,3-Hexafluoropropan-2-yl 5-[[3-methyl-2-(piperidin-1-yl)phenyl]methyl]-octahydropyrrolo[3,4-c]pyrrole-2-carboxylate]
- IC50 [1]: 100 to 1000 nM
- IC50 [2]: > 10000 nM
- inhibition at 1 µM [3]: < 25%
- inhibition at 1 µM [4]: < 25%
- inhibition at 1 µM [5]: > 75%
- IC50 [6]: 1000 to 10000 nM

Structure (SMILES): O=C(OC(C(F)(F)F)C(F)(F)F)N1CC2CN(Cc3ccc(C(F)F)cc3N3CCCCC3)CC2C1 (stereo not drawn) [Example 204, 1,1,1,3,3,3-hexafluoropropan-2-yl 5-(4-(difluoromethyl)-2-(piperidin-1-yl)benzyl)hexahydropyrrolo[3,4-c]pyrrole-2(1H)-carboxylate]
- IC50 [1]: < 100 nM
- IC50 [2]: 1000 to 10000 nM
- inhibition at 1 µM [3]: < 25%
- inhibition at 1 µM [4]: < 25%
- inhibition at 1 µM [5]: > 75%
- IC50 [6]: 1000 to 10000 nM
